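All cell lines were grown in 96-well plates and treated with compound for 48 hours. At the GI50, growth is halved. The concentration for full growth arrest is given as TGI.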
What was measured:
Assay in all cases: inhibition of tumour cell growth, NCI panel, 48 h
SR leukemia = tested on: SR leukemia
SK-OV-3 ovarian = tested on: SK-OV-3 ovarian
786-0 renal = tested on: 786-0 renal
RPMI-8226 leukemia = tested on: RPMI-8226 leukemia
CAKI-1 renal = tested on: CAKI-1 renal
HL-60(TB) leukemia = tested on: HL-60(TB) leukemia
SNB-75 CNS = tested on: SNB-75 CNS
SF-268 CNS = tested on: SF-268 CNS
K-562 leukemia = tested on: K-562 leukemia
HCC-2998 colon = tested on: HCC-2998 colon
NCI-H522 lung = tested on: NCI-H522 lung

Row | Compound | TGI (SR leukemia) [µM] | TGI (SK-OV-3 ovarian) [µM] | TGI (786-0 renal) [µM] | TGI (RPMI-8226 leukemia) [µM] | TGI (CAKI-1 renal) [µM] | TGI (HL-60(TB) leukemia) [µM] | TGI (SNB-75 CNS) [µM] | TGI (SF-268 CNS) [µM] | TGI (K-562 leukemia) [µM] | TGI (HCC-2998 colon) [µM] | TGI (NCI-H522 lung) [µM] | GI50 (SK-OV-3 ovarian) [µM] | GI50 (CAKI-1 renal) [µM] | GI50 (NCI-H522 lung) [µM] | GI50 (HL-60(TB) leukemia) [µM] | GI50 (SNB-75 CNS) [µM] | GI50 (SF-268 CNS) [µM]
1 | CN1CC=C(OP(=O)(NCc2ccccc2)N(CCCl)CCCl)CC1 (centres undefined) | > 100 | > 100 | > 100 | > 100 | > 100 | > 100 | > 100 | > 100 | > 100 | > 100 | – | – | – | – | – | – | –
2 | CSC1=N/C(=C\c2cccs2)C(=O)N1CN1CCCCC1 | > 100 | > 100 | > 100 | 68.8 | – | – | > 100 | > 100 | > 100 | – | – | – | – | – | – | – | –
3 | CCCCCCCCCC(=O)OCC1(CO)C/C(=C/CC(C(C)C)C(C)C)C(=O)O1 (centres undefined) | > 100 | > 100 | > 100 | – | 56.6 | – | > 100 | > 100 | 97 | > 100 | 39.8 | – | – | – | – | – | –
4 | CCCCCCC(N)(CCCCCC)C(=O)Nn1c(C)ccc1C | > 100 | > 100 | > 100 | > 100 | – | > 100 | > 100 | > 100 | > 100 | > 100 | > 100 | – | – | – | – | – | –
5 | Cc1ccc(-c2c(C#N)c(-c3ccc(N(C)C)cc3)c(C#N)c(=O)n2NS(=O)(=O)c2ccccc2)cc1 | – | > 100 | > 100 | 33.2 | 98.3 | > 100 | > 100 | > 100 | > 100 | > 100 | > 100 | – | – | – | – | – | –
6 | CCC(=O)N(c1ccccc1)C(C)CN1CCC(O)(c2ccccc2)CC1 (centres undefined) | > 100 | > 100 | > 100 | > 100 | > 100 | > 100 | > 100 | > 100 | > 100 | – | > 100 | – | – | – | – | – | –
7 | CCn1c(=O)c2c(=O)[nH][nH]c2c2ccccc21 | > 100 | – | > 100 | > 100 | – | > 100 | > 100 | – | > 100 | > 100 | > 100 | – | – | – | – | – | –
8 | COc1ccc2c(OC)c3ccoc3nc2c1O | – | > 100 | > 100 | > 100 | > 100 | – | > 100 | > 100 | > 100 | > 100 | > 100 | – | – | – | – | – | –
9 | Clc1cc(Cl)cc(N2N=C(c3cccc(Nc4ccncc4)c3)CC2c2ccccc2)c1 (centres undefined) | – | 31.9 | – | – | 3.36 | 5.2 | 5.38 | 4.63 | – | – | 3.6 | 13.1 | 1.57 | 1.79 | 1.9 | 1.45 | 1.99
10 | NN/C(=N\S(=O)(=O)c1cc(Cl)c(Oc2ccc([N+](=O)[O-])cc2Cl)c(Cl)c1)Nc1ccc(Cl)cc1 | 57.7 | > 100 | 36.8 | > 100 | 40.7 | – | 56.3 | 34.2 | > 100 | – | – | – | – | – | – | – | –
11 | O=C(O)CCC(=O)Nc1ccc2c(c1)S(=O)(=O)N(CC(=O)O)C2=O | > 100 | > 100 | > 100 | > 100 | > 100 | > 100 | – | – | > 100 | > 100 | > 100 | – | – | – | – | – | –
12 | CC(SC1=CC(=O)c2c(Cl)ccc(O)c2C1=O)C(=O)O (centres undefined) | 37.9 | – | – | 76.4 | – | 12.2 | 31 | 44.2 | > 100 | 41.1 | – | – | – | – | – | – | –
13 | CCc1cc(Cc2cc(CC)c(NC(=O)C3=CC(=O)CC(c4ccc(OC)cc4)O3)c(CC)c2Cl)c(Cl)c(CC)c1NC(=O)C1=CC(=O)CC(c2ccc(OC)cc2)O1 (centres undefined) | 59.2 | 32.2 | 34.3 | 46.8 | 65.8 | 68.1 | 46.2 | 58.2 | > 100 | 30.4 | – | – | – | – | – | – | –
14 | COc1ccc(NC=O)c(C(O)CCNC(C)=O)c1 (centres undefined) | > 100 | > 100 | > 100 | > 100 | > 100 | > 100 | > 100 | > 100 | > 100 | – | > 100 | – | – | – | – | – | –
15 | COc1ccc(/C=C/C(=O)NCC(NC(=O)/C=C/c2ccc(OC)c(OC)c2)C(=O)O)cc1OC (centres undefined) | > 100 | > 100 | > 100 | > 100 | > 100 | – | > 100 | > 100 | > 100 | > 100 | > 100 | – | – | – | – | – | –
16 | O=S(=O)(CC1=NC2C=CC=CC2N=C1)NCc1ccccc1 (centres undefined) | – | > 100 | > 100 | > 100 | > 100 | > 100 | > 100 | > 100 | > 100 | > 100 | > 100 | – | – | – | – | – | –
17 | Cn1c(=O)nc2n(CCO)c(-c3ccccc3)c(-c3ccccc3)nc-2c1=O | > 100 | > 100 | > 100 | > 100 | > 100 | – | > 100 | > 100 | > 100 | > 100 | > 100 | – | – | – | – | – | –
18 | COc1ccc2c(c1)c(Cc1c(C)n(C)c3ccc(OC)cc13)c(C)n2C | > 100 | > 100 | > 100 | > 100 | > 100 | > 100 | > 100 | > 100 | > 100 | – | > 100 | – | – | – | – | – | –
19 | CC(=O)OC1[C@H]2c3cc4c(cc3CN3CCC(C[C@@H]1OC(C)=O)C23)OCO4 (some centres undefined) | > 75 | > 75 | > 75 | > 75 | – | > 75 | > 75 | > 75 | > 75 | > 75 | > 75 | – | – | – | – | – | –
20 | O=C(/C=C/c1ccc(O)c(O)c1)NC(CO)C(=O)O (centres undefined) | > 100 | > 100 | > 100 | > 100 | > 100 | – | > 100 | > 100 | > 100 | > 100 | > 100 | – | – | – | – | – | –
21 | CCCOC(=O)c1cc(C(=CCC[C@H]2CC[C@@]3(C)[C@@H](CC[C@@H]4[C@@H]3CC[C@]3(C)[C@@H](C(C)CCCC(C)C)CC[C@@H]43)C2)c2cc(Cl)c(O)c(C(=O)OCCC)c2)cc(Cl)c1O (some centres undefined) | – | – | > 50 | > 50 | > 50 | > 50 | > 50 | > 50 | > 5 | > 50 | – | – | – | – | – | – | –
22 | N[C@@H]1C[C@H](N)c2c(Cl)sc(Cl)c21 | > 100 | – | > 100 | > 100 | > 100 | – | > 100 | – | > 100 | > 100 | – | – | – | – | – | – | –
